Tests used:
Type in all cases: in vivo
Lolium perenne (LOLPE) [1] = assay: Pre-emergence herbicidal glasshouse test, Lolium perenne; conditions: 312 h, rate 250 g/ha, evaluated after 13 days, scale 100 = total damage to plant, 0 = no damage
Protocol: (§1) Seeds of a variety of test species were sown in standard soil in pots. After cultivation for one day (pre-emergence) or after 8 days cultivation (post-emergence) under controlled conditions in a glasshouse (at 24/16° C., day/night; 14 hours light; 65% humidity), the plants were sprayed with an aqueous spray solution derived from the formulation of the technical active ingredient in acetone/water (50:50) solution containing 0.5% Tween 20 (polyoxyethelyene sorbitan monolaurate, CAS RN 9005-64-5). The test plants were then grown in a glasshouse under controlled conditions in a glasshouse (at 24/16° C., day/night; 14 hours light; 65% humidity) and watered twice daily. After 13 days for pre and post-emergence, the test was evaluated ([…] to plant; 0=no damage to plant).
(§2) Setaria faberi (SETFA), Lolium perenne (LOLPE), Alopecurus myosuroides (ALOMY), Echinochloa crus-galli (ECHCG) and Avena fatua (AVEFA).

[2] = test system: Alopecurus myosuroides (ALOMY); assay: Pre-emergence herbicidal glasshouse test, Alopecurus myosuroides; conditions: Alopecurus myosuroides, 312 h, rate 250 g/ha, evaluated after 13 days, scale 100 = total damage to plant, 0 = no damage
Protocol: as §1, §2

[3] = test system: Echinochloa crus-galli (ECHCG); assay: Pre-emergence herbicidal glasshouse test, Echinochloa crus-galli; conditions: Echinochloa crus-galli, 312 h, rate 250 g/ha, evaluated after 13 days, scale 100 = total damage to plant, 0 = no damage
Protocol: as §1, §2

Avena fatua (AVEFA) [4] = assay: Pre-emergence herbicidal glasshouse test, Avena fatua; conditions: Avena fatua, 312 h, rate 250 g/ha, evaluated after 13 days, scale 100 = total damage to plant, 0 = no damage
Protocol: as §1, §2

Lolium perenne (LOLPE) [5] = assay: Post-emergence herbicidal glasshouse test, Lolium perenne; conditions: 312 h, rate 250 g/ha, evaluated after 13 days, scale 100 = total damage to plant, 0 = no damage
Protocol: as §1, §2

[6] = test system: Alopecurus myosuroides (ALOMY); assay: Post-emergence herbicidal glasshouse test, Alopecurus myosuroides; conditions: Alopecurus myosuroides, 312 h, rate 250 g/ha, evaluated after 13 days, scale 100 = total damage to plant, 0 = no damage
Protocol: as §1, §2

[7] = test system: Echinochloa crus-galli (ECHCG); assay: Post-emergence herbicidal glasshouse test, Echinochloa crus-galli; conditions: Echinochloa crus-galli, 312 h, rate 250 g/ha, evaluated after 13 days, scale 100 = total damage to plant, 0 = no damage
Protocol: as §1, §2

Avena fatua (AVEFA) [8] = assay: Post-emergence herbicidal glasshouse test, Avena fatua; conditions: Avena fatua, 312 h, rate 250 g/ha, evaluated after 13 days, scale 100 = total damage to plant, 0 = no damage
Protocol: as §1, §2

| Compound | pest or weed control at 250 g/ha (Lolium perenne (LOLPE) [1]) [%] | pest or weed control at 250 g/ha [2] [%] | pest or weed control at 250 g/ha [3] [%] | pest or weed control at 250 g/ha (Avena fatua (AVEFA) [4]) [%] | pest or weed control at 250 g/ha (Lolium perenne (LOLPE) [5]) [%] | pest or weed control at 250 g/ha [6] [%] | pest or weed control at 250 g/ha [7] [%] | pest or weed control at 250 g/ha (Avena fatua (AVEFA) [8]) [%] |
| --- | --- | --- | --- | --- | --- | --- | --- | --- |
| CCc1cc(-c2ccc(Cl)cc2F)ccc1C1=C(O)[C@@]2(C)CC[C@H](O2)C1=O (racemic) [Compound A-14] | 80 | 50 | 80 | 50 | 100 | 80 | 100 | 100 |
| Cc1cc(-c2ccc(Cl)cc2F)cc(C)c1C1=C(O)[C@@]2(C)CC[C@H](O2)C1=O (racemic) [Compound A-53] | 90 | 50 | 100 | 60 | 100 | 90 | 100 | 80 |
| CCc1cc(-c2ccc(Cl)cc2Cl)ccc1C1=C(O)[C@@]2(C)CC[C@H](O2)C1=O [Compound A-13] | 20 | 0 | 50 | 0 | 100 | 70 | 100 | 80 |
| CCc1cc(-c2ccc(Cl)cc2)ccc1C1=C(O)C(C)(C)OC(C)(C)C1=O [Compound A-35] | 80 | 50 | 90 | 40 | 90 | 100 | 100 | 80 |
| CCc1cc(-c2ccc(Cl)cc2Cl)ccc1C1=C(O)C(C)(C)OC(C)(C)C1=O [Compound A-36] | 0 | 0 | 0 | 0 | 40 | 30 | 60 | 20 |
| CCc1cc(-c2ccc(Cl)c(Cl)c2)ccc1C1=C(O)C(C)(C)OC(C)(C)C1=O [Compound A-38] | 70 | 0 | 50 | 0 | 70 | 80 | 80 | 50 |
| CCc1cc(-c2ccc(Cl)s2)ccc1C1=C(O)C(C)(C)OC(C)(C)C1=O [Compound A-41] | 20 | 0 | 0 | 30 | 60 | 50 | 70 | 0 |
| CCc1cc(-c2ccc(Cl)c(F)c2)ccc1C1=C(O)C(C)(C)OC(C)(C)C1=O [Compound A-42] | 90 | 10 | 90 | 20 | 90 | 90 | 100 | 80 |
| CCc1cc(-c2ccc(Cl)cn2)ccc1C1=C(O)C(C)(C)OC(C)(C)C1=O [Compound A-43] | 50 | 20 | 70 | 30 | 80 | 80 | 100 | 70 |
| CCc1cc(-c2ccc(Cl)c(F)c2Cl)ccc1C1=C(O)C(C)(C)OC(C)(C)C1=O [Compound A-46] | 40 | 0 | 30 | 0 | 40 | 50 | 80 | 0 |
| CCc1cc(-c2ccc(Cl)c(F)c2F)ccc1C1=C(O)C(C)(C)OC(C)(C)C1=O [Compound A-47] | 50 | 0 | 30 | 40 | 60 | 90 | 100 | 70 |
| CCc1cc(-c2ccc(Cl)c(Cl)c2F)ccc1C1=C(O)C(C)(C)OC(C)(C)C1=O [Compound A-48] | 0 | 0 | 0 | 0 | 30 | 50 | 100 | 20 |
| CCc1cc(-c2ccc(F)cc2)ccc1C1=C(O)C(C)(C)OC(C)(C)C1=O [Compound A-50] | 100 | 60 | 90 | 60 | 100 | 90 | 100 | 80 |
| CCc1cc(-c2ccc(Cl)cc2F)ccc1C1=C(O)C(C)(C)OC(C)(C)C1=O [Compound A-51] | 0 | 0 | 20 | 0 | 50 | 60 | 70 | 60 |
| CCc1cc(-c2ccc(Cl)c(C)c2)ccc1C1=C(O)C(C)(C)OC(C)(C)C1=O [Compound A-52] | 0 | 0 | 20 | 0 | 40 | 40 | 70 | 20 |
| Cc1cc(-c2cc(Cl)cc(Cl)c2)cc(C)c1C1=C(O)[C@@]2(C)CC[C@H](O2)C1=O [Compound A-54] | 0 | 0 | 0 | 0 | 40 | 40 | 80 | 30 |
| Cc1cc(-c2ccc(F)cc2)cc(C)c1C1=C(O)[C@@]2(C)CC[C@H](O2)C1=O [Compound A-55] | 90 | 70 | 100 | 70 | 100 | 100 | 100 | 90 |
| CCc1cc(-c2cc(F)cc(Cl)c2)ccc1C1=C(O)C(C)(C)OC(C)(C)C1=O [Compound A-60] | 0 | 0 | 0 | 0 | 70 | 60 | 90 | 70 |
